The values below are quoted from earlier work in patent publication US12201623B1, “Composition and method for preventing long-term COVID-19 morbidity” (priority 2021, dated 2025).

In this series the test system is SARS-COV-2. The following applies: peripheral blood monocytes purified from healthy volunteers.

In the case of `COC1=C(OC)C(=O)C(CCCCCCCCCC[P+](c2ccccc2)(c2ccccc2)c2ccccc2)=C(C)C1=O` [MitoQ], the SARS-COV-2 replication entry is given as “suppressed”.
As to `CC(=O)N[C@@H](CS)C(=O)O` [NAC], the SARS-COV-2 replication entry was “suppressed”.
